Species on record: Rattus norvegicus
Experiment: DrugMatrix - Regimen: Daily Repeat
Format: toxicity, organism-based, Sprague-Dawley
Parameters: regimen Daily Repeat, gender Male, age 6-8 weeks
Details: in vivo, po, 60 mg/kg, route oral GAVAGE, dose level High, vehicle 100 % WATER; for ABSOLUTE BASOPHIL / ABSOLUTE EOSINOPHIL / ABSOLUTE LYMPHOCYTE / ABSOLUTE MONOCYTE / ABSOLUTE SEGMENTED NEUTROPHIL / BASOPHIL / EOSINOPHIL / ERYTHROCYTE COUNT / HEMATOCRIT / HEMOGLOBIN / LEUKOCYTE COUNT / LYMPHOCYTE / MEAN CORPUSCULAR HEMOGLOBIN / MEAN CORPUSCULAR HEMOGLOBIN CONCENTRATION / MEAN CORPUSCULAR VOLUME / MONOCYTE / NEUTROPHIL / NUCLEATED RED BLOOD CELLS / PLATELET COUNT: tissue Blood
[1] = 72 h, tissue Plasma, time 3 day
[2] = 120 h, tissue Plasma, time 5 day

Nc1ccc(O)c(N)c1 [2,4-DIAMINOPHENOL]
ABSOLUTE BASOPHIL (72 h, time 3 day): 0 CELLS/uL
ABSOLUTE EOSINOPHIL (72 h, time 3 day): 193.67 CELLS/uL
ABSOLUTE LYMPHOCYTE (72 h, time 3 day): 11960 CELLS/uL
ABSOLUTE MONOCYTE (72 h, time 3 day): 874.33 CELLS/uL
ABSOLUTE SEGMENTED NEUTROPHIL (72 h, time 3 day): 1505.33 CELLS/uL
BASOPHIL (72 h, time 3 day): 0%
EOSINOPHIL (72 h, time 3 day): 1.33%
ERYTHROCYTE COUNT (72 h, time 3 day): 5.59 x10E6/uL
HEMATOCRIT (72 h, time 3 day): 34.17%
HEMOGLOBIN (72 h, time 3 day): 12.63 G/DL
LEUKOCYTE COUNT (72 h, time 3 day): 14.53 x10E3/uL
LYMPHOCYTE (72 h, time 3 day): 82.33%
MEAN CORPUSCULAR HEMOGLOBIN (72 h, time 3 day): 22.6 pg
MEAN CORPUSCULAR HEMOGLOBIN CONCENTRATION (72 h, time 3 day): 36.97 G/DL
MEAN CORPUSCULAR VOLUME (72 h, time 3 day): 61.1 fL
MONOCYTE (72 h, time 3 day): 6%
NEUTROPHIL (72 h, time 3 day): 10.33%
NUCLEATED RED BLOOD CELLS (72 h, time 3 day): 0 /100WBC
PLATELET COUNT (72 h, time 3 day): 1050 x10E3/uL
ALANINE AMINOTRANSFERASE [1]: 72 u/L
ALBUMIN [1]: 4.43 G/DL
ALKALINE PHOSPHATASE [1]: 400.67 u/L
ASPARTATE AMINOTRANSFERASE [1]: 94 u/L
BLOOD UREA NITROGEN [1]: 17.67 mg/dL
CARBON DIOXIDE [1]: 23.33 mmol/L
CHLORIDE [1]: 102.67 MEQ/L
CHOLESTEROL [1]: 68 mg/dL
CREATININE [1]: 0.19 mg/dL
GLUCOSE [1]: 165 mg/dL
LACTATE DEHYDROGENASE [1]: 314.67 u/L
LIPASE [1]: 8.33 u/L
PHOSPHORUS [1]: 12.5 mg/dL
POTASSIUM [1]: 6.48 MEQ/L
SODIUM [1]: 144.2 MEQ/L
TOTAL BILIRUBIN [1]: 0.23 mg/dL
TOTAL PROTEIN [1]: 6 G/DL
URIC ACID [1]: 1.63 mg/dL
ABSOLUTE BASOPHIL (120 h, time 5 day): 0 CELLS/uL
ABSOLUTE EOSINOPHIL (120 h, time 5 day): 0 CELLS/uL
ABSOLUTE LYMPHOCYTE (120 h, time 5 day): 5905 CELLS/uL
ABSOLUTE MONOCYTE (120 h, time 5 day): 88.67 CELLS/uL
ABSOLUTE SEGMENTED NEUTROPHIL (120 h, time 5 day): 839.67 CELLS/uL
BASOPHIL (120 h, time 5 day): 0%
EOSINOPHIL (120 h, time 5 day): 0%
ERYTHROCYTE COUNT (120 h, time 5 day): 5.11 x10E6/uL
HEMATOCRIT (120 h, time 5 day): 31.43%
HEMOGLOBIN (120 h, time 5 day): 11.77 G/DL
LEUKOCYTE COUNT (120 h, time 5 day): 6.83 x10E3/uL
LYMPHOCYTE (120 h, time 5 day): 86.33%
MEAN CORPUSCULAR HEMOGLOBIN (120 h, time 5 day): 23.1 pg
MEAN CORPUSCULAR HEMOGLOBIN CONCENTRATION (120 h, time 5 day): 37.43 G/DL
MEAN CORPUSCULAR VOLUME (120 h, time 5 day): 61.57 fL
MONOCYTE (120 h, time 5 day): 1.33%
NEUTROPHIL (120 h, time 5 day): 12.33%
NUCLEATED RED BLOOD CELLS (120 h, time 5 day): 0 /100WBC
PLATELET COUNT (120 h, time 5 day): 990.67 x10E3/uL
ALANINE AMINOTRANSFERASE [2]: 50.33 u/L
ALBUMIN [2]: 4.63 G/DL
ALKALINE PHOSPHATASE [2]: 303.67 u/L
ASPARTATE AMINOTRANSFERASE [2]: 73 u/L
BLOOD UREA NITROGEN [2]: 12.67 mg/dL
CARBON DIOXIDE [2]: 33 mmol/L
CHLORIDE [2]: 99.67 MEQ/L
CHOLESTEROL [2]: 71.67 mg/dL
CREATININE [2]: 0.15 mg/dL
GLUCOSE [2]: 135.33 mg/dL
LACTATE DEHYDROGENASE [2]: 84.67 u/L
LIPASE [2]: 8.67 u/L
PHOSPHORUS [2]: 12.63 mg/dL
POTASSIUM [2]: 6.25 MEQ/L
SODIUM [2]: 146.5 MEQ/L
TOTAL BILIRUBIN [2]: 0.23 mg/dL
TOTAL PROTEIN [2]: 6.5 G/DL

— ChEMBL document CHEMBL3885881, “DrugMatrix”
